Source: patent US12016881B2, “Methods and reagents for modulating macrophage phenotype” (NEW YORK UNIVERSITY, priority 2016, dated 2024)

What was measured:
Type in all cases: cell-based, mouse
RAW 264.7 cells [1] = test: Gene expression analysis (qPCR) of M1 cytokines and Inos; conditions: for effect on nab-paclitaxel-dependent M1 cytokine expression: co-treatment with nab-paclitaxel
Procedure: Cell lines and cell culture treatments. All cells were maintained under 5% CO2 at 37° C. and cultured in DMEM (Gibco) supplemented with 10% FBS (Gibco), penicillin and streptomycin (Gibco), and 25 mmol/L HEPES (Gibco). Mouse RAW 264.7 cells were obtained from the American Type Culture Collection (2014, ATCC TIB-71). Mouse KPC cells were a kind gift from Dr. R. H. Vonderheide (2013) and generated as previously described (Lo et al., “Tumor-Promoting Desmoplasia Is Disrupted by Depleting FAP-Expressing Stromal Cells,” Cancer Res. 75:2800-10 (2015), which is hereby incorporated by reference in its entirety). Cell lines were not authenticated and were tested for mycoplasma contamination every 3 months by DAPI stain of cells grown for 1 week in the absence of antibiotics. KPC and RAW 264.7 were propagated for 2 to 3 passages (approximately 1 week) prior to use in all experiments and were kept in culture for no longer than 1 month. Recombinant mouse interferon gamma IFNγ was purchased from R&D Systems (CN 485 MI/CF), LPS (L2630), and paclitaxel (T7402) were purchased from Sigma-Aldrich, CLI-095 was purchased from Invivogen (TLRL-CLI95), BAPTA-AM was purchased from Life Technologies (B6769), and 5-(N-ethyl-N-isopropyl) amiloride (EIPA) was purchased from Invitrogen Molecular Probes (e-3111). Reagents were used at concentrations of 5 ng/mL (IFNγ), 20 ng/mL (LPS), […] (paclitaxel), 500 nmol/L (CLI-095), […] (BAPTA-AM), and […] (EIPA) unless indicated otherwise. Tetramethylrhodamine (TMR)-labeled dextran was purchased from Invitrogen (D1822). Nab-paclitaxel (Abraxane; Abraxis BioScience) pharmaceutical grade powder was purchased through the NYU Langone Medical Center pharmacy and used at a concentration of […] for in vitro experiments.
Gene expression analysis. For in vitro qPCR analysis, total RNAwas harvested 2 hours (IL1α, IL1β, IL6, TNFα, and iNOS) or 8 hours (IL12β) after cell culture treatments, using the QIAGEN RNA extraction Kit (QIAGEN). For in vivo gene expression analysis, the CD45 F4/80 double-positive population was sorted directly into TRIzol LS Reagent (Thermo-FisherScientific; CN 10296) from dissociated orthotopic tumors 48 hours after treatment, and total RNA was purified according to the manufacturer's protocol. Purified RNA ([…]) was reverse-transcribed using the QuantiTect Reverse Transcription Kit (QIAGEN), and 1 of 10 of cDNA mixture (in vitro experiments) or 1 of 3 of cDNA mixture (in vivo experiments) was used for qPCR reaction. Primers were obtained from Integrated DNA Technologies (IDT) with the following sequences (5′-3′): Il1α (Forward) […] (SEQ ID NO: 2), (Reverse) […] (SEQ ID NO: 3); Il1β (Forward) […] (SEQ ID NO: 4), (Reverse) […] (SEQ ID NO: 5); Il6 (Forward) […]-[…] (SEQ ID NO: 6), (Reverse) […] (SEQ ID NO: 7); Inos (Forward) […] (SEQ ID NO: 8), (Reverse) […] (SEQ ID NO: 9); Tnfα (Forward) […] (SEQ ID NO: 10), (Reverse) […] (SEQ ID NO: 11); Il12b (IIl12 p40) (Forward) […] (SEQ ID NO: 12), (Reverse) […]-[…] (SEQ ID NO: 13); Gapdh (Forward) […] (SEQ ID NO: 14), (Reverse) […] (SEQ ID NO: 15); Rps29 […] (SEQ ID NO: 16) (Forward), […]-GCGTACT (SEQ ID NO: 17) (Reverse).

RAW 264.7 cells [2] = test: Western blot analysis of M1 cytokine and iNOS protein expression
Procedure: (§1) Cell lines and cell culture treatments. All cells were maintained under 5% CO2 at 37° C. and cultured in DMEM (Gibco) supplemented with 10% FBS (Gibco), penicillin and streptomycin (Gibco), and 25 mmol/L HEPES (Gibco). Mouse RAW 264.7 cells were obtained from the American Type Culture Collection (2014, ATCC TIB-71). Mouse KPC cells were a kind gift from Dr. R. H. Vonderheide (2013) and generated as previously described (Lo et al., “Tumor-Promoting Desmoplasia Is Disrupted by Depleting FAP-Expressing Stromal Cells,” Cancer Res. 75:2800-10 (2015), which is hereby incorporated by reference in its entirety). Cell lines were not authenticated and were tested for mycoplasma contamination every 3 months by DAPI stain of cells grown for 1 week in the absence of antibiotics. KPC and RAW 264.7 were propagated for 2 to 3 passages (approximately 1 week) prior to use in all experiments and were kept in culture for no longer than 1 month. Recombinant mouse interferon gamma IFNγ was purchased from R&D Systems (CN 485 MI/CF), LPS (L2630), and paclitaxel (T7402) were purchased from Sigma-Aldrich, CLI-095 was purchased from Invivogen (TLRL-CLI95), BAPTA-AM was purchased from Life Technologies (B6769), and 5-(N-ethyl-N-isopropyl) amiloride (EIPA) was purchased from Invitrogen Molecular Probes (e-3111). […]

RAW 264.7 cells [3] = test: Macropinocytosis assay: OG-nab-paclitaxel internalization by macrophages; conditions: 30 minute pretreatment with inhibitor or blocking antibody
Procedure: as §1

[4] = nab-ptx in combination with IFNγ

Row | Compound | effect on nab-paclitaxel-dependent M1 cytokine expression (RAW 264.7 cells [1]) | effect on nab-paclitaxel and LPS-dependent iNOS protein expression (RAW 264.7 cells [2]; with IFNγ) | effect on LPS-dependent Il1α, Il1β, Il6, Il12b, and Tnfα gene expression (RAW 264.7 cells [1]; TLR4 inhibitor with LPS) | effect on nab-paclitaxel-dependent Il1α, Il1β, Il6, Il12b, and Tnfα gene expression (RAW 264.7 cells [1]; TLR4 inhibitor with nab-ptx) | effect on nab-paclitaxel-driven iNOS protein expression (RAW 264.7 cells [2]; [4]) | effect on OG-nab-paclitaxel internalization (RAW 264.7 cells [3]) | effect on nab-paclitaxel-driven iNOS gene expression (RAW 264.7 cells [1]; [4])
1 | CC(=O)OCOC(=O)CN(CC(=O)OCOC(C)=O)c1ccccc1OCCOc1ccccc1N(CC(=O)OCOC(C)=O)CC(=O)OCOC(C)=O [BAPTA-AM] | inhibited | – | – | – | – | – | –
2 | CCOC(=O)C1=CCCC[C@H]1S(=O)(=O)Nc1ccc(F)cc1Cl [CLI-095] | – | abrogated | abrogated | abrogated | – | – | –
3 | CCN(c1nc(N)c(C(=O)N=C(N)N)nc1Cl)C(C)C [EIPA, 5-(N-ethyl-N-isopropyl) amiloride] | inhibited | – | – | – | partially inhibited | reduced | partially inhibited
